Assay results from PMC11785709, “Angelica gigas Nakai (Korean Dang-gui) Root Alcoholic Extracts in Health Promotion and Disease Therapy – active Phytochemicals and In Vivo Molecular Targets” (Pharmaceutical Research, 2025).
In brackets after ≈: the same amount, converted by molar mass. Several values for one entry are separate records, joined by “and”; a condition that tells them apart may be missing. Equal entries are not always repeated. Entries after “also recorded” stand apart in the source; their conditions may differ. Where two headings read alike, the source gives them in different places.

Columns and labels:
[1] = system: most sensitive bacterial strain; assay: bactericidal activity of D, MIC; format: cell-based; conditions: converted value in brackets; read-out: minimal inhibitory concentration
bacteria [2] = assay: bactericidal activity of D, MIC (Thailand group); format: cell-based; conditions: converted value in brackets
AChE [3] = system: AChE; parameters: method as in PMID 11374978; conditions: read-out: AChE inhibition IC50; cited from earlier work
AR; ERα = conditions: cited from earlier work
human MAO-A = system: human MAO-A; parameters: method as in PMID 28109809; conditions: cited from earlier work
MAO-B = system: MAO-B; parameters: method as in PMID 28109809; conditions: screened at 10 μM; cited from earlier work
GDH = system: GDH; parameters: method as in PMID 36455296; conditions: read-out: GDH inhibition IC50; cited from earlier work
TRPV1 = system: TRPV1; parameters: method as in PMID 33806325; conditions: capsaicin-induced, F11 cell culture; read-out: TRPV1-Ca2+ release IC50; cited from earlier work
paclitaxel-CINP = system: paclitaxel-CINP; parameters: method as in PMID 33806325; conditions: cited from earlier work
[4] = system: kainic acid (KA)-induced status epilepticus; parameters: method as in PMID 25171200; conditions: D ip 20 mg/kg 30 min prior to KA; cited from earlier work
[5] = system: global cerebral ischemia BOCCA model; parameters: method as in PMID 33918660; conditions: cited from earlier work
[6] = system: high fat-diet induced obesity; parameters: method as in PMID 21972114; conditions: HFD plus D 200 mg/kg (ppm), 7 weeks; cited from earlier work
HepG2 cells = system: HepG2 cells; parameters: method as in earlier work; conditions: free fatty acid mixture (oleate:palmitate = 2:1); cited from earlier work
[7] = system: adipose stem cells (ASCs); parameters: method as in PMID 31861646; conditions: cited from earlier work
[8] = system: collagen/epinephrine-induced thromboembolism; parameters: method as in PMID 34575088; conditions: D at 12.5 mg/kg; cited from earlier work
[9] = system: most sensitive bacterial strain; parameters: method as in PMID 12877552; conditions: cited from earlier work
bacteria [10] = system: bacteria; parameters: method as in doi:10.7324/JAPS201331012; conditions: cited from earlier work
[11] = system: destabilization of medial meniscus (DMM) OA; parameters: method as in PMID 33878544; conditions: daily gavage, 20 mg/kg, 8 weeks after DMM; cited from earlier work
hair growth = system: hair growth; parameters: method as in PMID 32823713; conditions: cited from earlier work
[12] = cited from earlier work
[13] = cited from earlier work; remark: listed apart in the source
CYP2C19 and 3A4 = conditions: cited from earlier work
carboxyesterase-2 (CES2) = conditions: cited from earlier work
[14] = oral AGN 100 mg per rat (~ 300 mg/kg bw); cited from earlier work
AChE [15] = system: AChE; parameters: method as in PMID 17382968; conditions: in vitro test; cited from earlier work
AChE [16] = system: AChE; parameters: method as in PMID 17382968; conditions: ex vivo, 6 h after dose; cited from earlier work
breast cancer cell = system: breast cancer cell; parameters: method as in PMID 36830050; conditions: concentration-dependent; cited from earlier work
[17] = system: scopolamine-induced memory disruption; parameters: method as in PMID 17382968; conditions: 10 mg/kg, po; cited from earlier work
HFD-induced obese mice = system: HFD-induced obese mice; parameters: method as in PMID 34165214; conditions: daily oral 10 and 20 mg/kg, 5 weeks; cited from earlier work
TNBS-induced colitis = system: TNBS-induced colitis; parameters: method as in PMID 39042157; conditions: cited from earlier work
OVX-induced bone loss = system: OVX-induced bone loss; parameters: method as in PMID 37866743; conditions: oral nodakenin; cited from earlier work
[18] = system: bone marrow stem cells (BMSCs); parameters: method as in PMID 37866743; conditions: cell culture exposure; cited from earlier work
[19] = system: RANKL-induced osteoclastogenesis; parameters: method as in PMID 37866743; conditions: cell culture model; cited from earlier work
CP-treated mice = system: CP-treated mice; parameters: method as in PMID 34875347; conditions: cited from earlier work
[20] = rat, in vivo, iv; cited from earlier work
[21] = rat, in vivo, po, cited from earlier work
[22] = system: MDA-MB231 sc breast cancer xenograft; conditions: 30 mg/kg ip twice weekly, 5-week assay; cited from earlier work
[23] = system: acute thermal pain models and CINP; parameters: method as in PMID 36249788; conditions: once-daily ip; hot plate, tail-flick and CINP mice; cited from earlier work
[24] = topical 0.15% D or 2% AGN root extract

## CC(C)=CC(=O)O[C@H]1Cc2cc3ccc(=O)oc3cc2OC1(C)C [D, decursin]
[1]
  MIC: ~38 µM (≈ 12.5 µg/mL)
Bacteria [2]
  MIC: ~98 µM (≈ 32.2 µg/mL)
AChE [3]
  IC50: 390000 nM
AR; ERα; antagonist/degrader
  IC50: ~5000 nM
AR; ERα; responsive cancer cell culture models
  mode of action on AR and ERα: antagonists/degraders
Human MAO-A; read-out: MAO-A inhibition IC50
  IC50: 1890 nM
Human MAO-A; reversible and competitive inhibitor
  Ki: 170 nM
MAO-B
  inhibitory activity on MAO-B: lacked any inhibitory activity
GDH
  IC50: ~1000 nM and 1000 nM
TRPV1
  IC50: ~1000 nM
paclitaxel-CINP; first it injection of D 50 mg/kg
  mechanical allodynia relief: no relief
paclitaxel-CINP; second and third it injections
  duration of blunted allodynia: up to 3 h
[4]
  behavioral seizure activity: decreased behavioral seizure activity
[5]; oral post-ischemia, AGN 350 and 400 mg/kg or D 25 mg/kg
  protection of CA1 pyramidal neurons: spared the pyramidal neurons from ischemic death; also recorded: detectable protection
[5]; post-treatment, 5 days following BOCCA
  spatial memory (8-ARMT) and learning memory (PAT): preserved spatial memory
[6]
  weight gain: decreased weight gain
HepG2 cells
  lipid accumulation: suppressed lipid accumulation
[7]
  adipocyte differentiation: significantly inhibited adipocyte differentiation
[8]
  protection against thromboembolism: replicated the protective effect
[9]
  minimal inhibitory concentration: ~ 12.5 mg/L
Bacteria [10]
  MIC: ~ 32 mg/L
[11]
  destruction of articular cartilage: attenuated the destruction of articular cartilage
Hair growth; [24]
  time at which hair growth was complete: 17 days
  time from which hair growth was visibly facilitated: 7 days
Hair growth; topical twice a day 17 days, 0.15% D or 2% AGN root extract
  hair growth: promoted hair growth in equal efficacy
[12]; in vivo
  relative circulating Cmax and AUC: ~1 ×
  relative plasma Cmax: 1 x
[12]; read-out: mean peak concentration Cmax, 10 men and 10 women, 800 mg INM176 AGN oral
  Cmax: 5.3 nM
[13]; 4.6 g AGN root powder per subject
  t1/2: 3.03 h
[13]; in vivo
  tmax: 0.44 h
CYP2C19 and 3A4
  Cyp isoforms for metabolism to DOH: major human isoforms
carboxyesterase-2 (CES2)
  CES2 contribution to metabolism to DOH: further contributed
[14]
  elimination of plasma D: barely detectable after 7 h
  time of peak absorption, plasma D: around 4 h

## CC(C)(O[C@@H]1O[C@H](CO)[C@@H](O)[C@H](O)[C@H]1O)[C@H]1Cc2cc3ccc(=O)oc3cc2O1 [Nodakenin, nodakenin]
AChE [3]
  IC50: 68000 nM
AChE [15]
  IC50: 84700 nM
AChE [16]
  brain slice AChE activity: lowered
Breast cancer cell
  breast cancer cell viability: inhibited breast cancer cell viability
[17]
  scopolamine-induced memory disruption: ameliorate
HFD-induced obese mice
  suppression of weight gain, dyslipidemia and fatty liver: comparable potency to orlistat
TNBS-induced colitis; colon sample, 40 mg/kg
  downregulation of COX-2 mRNA expression: 1.98 fold
  downregulation of IL-1β mRNA expression: 1.29 fold
  downregulation of IL-18 mRNA expression: 1.17 fold
  downregulation of NFƙB mRNA expression: 1.24 fold
  downregulation of NLRP3 mRNA expression: 1.78 fold
  downregulation of iNOS mRNA expression: 1.2 fold
TNBS-induced colitis; gavage 10, 20, and 40 mg/kg
  disease activity index (DAI) score: lowered the DAI score
OVX-induced bone loss
  bone mass: elevated mouse bone mass
[18]
  osteogenic differentiation: promoted osteogenic differentiation
[19]
  osteoclastogenesis: inhibited RANKL-induced osteoclastogenesis
CP-treated mice
  levels of IFN-γ, IL-12, IL-2, IL-6, and TNF-α in serum and spleen: increased
[13]; in vivo
  apparent volume of distribution Vd: 2800 L
  t1/2: 6.28 h
[20]
  t1/2: 3.3 h
[21]; 2.5 mg/kg
  t1/2: 4.6 h
[21]; 10 mg/kg
  t1/2: 6.2 h
[22]
  xenograft growth inhibition: ~ 88%

## CN1CC[C@]23c4c5ccc(O)c4O[C@H]2[C@@H](O)C=C[C@H]3[C@H]1C5 [morphine, reference compound]
[23]
  time to tolerance development: < 3 days
